From PMC11879280, “Antimicrobial activity of peptoids against Metallo-β-lactamase-producing Klebsiella pneumoniae, Acinetobacter baumannii, Pseudomonas aeruginosa, and other WHO priority pathogens, including Candida auris” (Journal of Applied Microbiology, 2025)
Read-outs that look alike come from different tables or passages of the source. Square brackets hold non-standard residues; d marks the D form. Ends that are not written are not given here. Peptide text beside a SMILES is read from it. Nspe(4-Br) = C[C@H](NCC(=O)O)c1ccc(Br)cc1; N(tridecyl)Gly = CCCCCCCCCCCCCNCC(=O)O; Nspe = C[C@H](NCC(=O)O)c1ccccc1; Nlys = NCCCCNCC(=O)O

Legend:
[1] = system: MBL-producing bacteria; experiment: Geometric mean MIC, therapeutic index and selectivity ratio, MBL-producing bacteria; type: cell-based
Protocol: (§1) Briefly, bacteria were suspended in cation-adjusted Mueller–Hinton broth (CAMHB; Oxoid, UK) for antibiotics, or MHB (Oxoid, UK) for peptidomimetics to obtain 5 × 10^5 colony forming unit (CFU) ml^−1. […] Positive controls contained only microbes, and blanks contained only media. Microbial suspensions (100 µl) were added to wells, plates wrapped, and incubated at 37°C, 120 rpm for 16–20 h. After incubation, suspensions were removed, log10 diluted, and plated on Trypticase Soya Agar with phosphatidylcholine and Tween 80 to determine minimum bactericidal or fungicidal concentration (MBC or MFC). […] Geometric mean MIC of the peptoids were calculated to evaluate the broad overview of antimicrobial activity across the pathogens.
The test was performed as per the manufacturer’s instructions. Briefly, the strips were applied to a lawn culture of bacteria maintained at 1.5 × 10^8 CFU ml^−1 on Mueller–Hinton agar (Oxoid, UK) and incubated for 20 h at 37°C.
(§2) The therapeutic indices (TIs) of the compounds were calculated with the use of following formula: […]

[2] = system: Enterobacteriaceae; experiment: Geometric mean MIC, therapeutic index and selectivity ratio, Enterobacteriaceae; type: cell-based; details: Enterobacteriaceae (E. coli, K. pneumoniae, and E. aerogenes)
Protocol: as §1, §2

[3] = system: E. coli 0010
Procedure, shortened: (§3)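 Bacteria were suspended at 5 × 10^5 CFU ml^−1 in CAMHB for antibiotics or MHB for peptidomimetics, then incubated at 37°C, 120 rpm for 16–20 h. Suspensions were log10 diluted and plated on Trypticase Soya Agar with phosphatidylcholine and Tween 80 for MBC.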

[4] = system: S. aureus 04
Procedure, shortened: as §3

[5] = system: K. pneumoniae JIE2709
Procedure, shortened: as §3

[6] = system: S. aureus 105
Procedure, shortened: as §3

[7] = system: Enteroc. faecalis NCTC 13 379
Procedure, shortened: as §3

[8] = system: A. baumannii 005
Procedure, shortened: as §3

[9] = system: ESKAPEE pathogens (all bacteria); experiment: Geometric mean MIC, therapeutic index and selectivity ratio, all bacteria; type: cell-based; details: for Geometric mean MIC, all bacteria: across the 23 ESKAPEE strains
Protocol: as §1, §2

[10] = system: C. auris CBS10913
[11] = E. coli 0010, MHB (melimine/Mel4 with 0.2% BSA, 0.01% acetic acid), mean MIC
[12] = K. pneumoniae JIE2709, MHB (melimine/Mel4 with 0.2% BSA, 0.01% acetic acid), mean MIC
[13] = S. aureus 105, MHB (melimine/Mel4 with 0.2% BSA, 0.01% acetic acid), mean MIC
[14] = Enteroc. faecalis NCTC 13 379, MHB (melimine/Mel4 with 0.2% BSA, 0.01% acetic acid), mean MIC
[15] = A. baumannii 005, MHB (melimine/Mel4 with 0.2% BSA, 0.01% acetic acid), mean MIC
[16] = CBS 10 913, RPMI 1640 with MOPS, 5 × 10^3 CFU ml^−1, ≥90% reduction (≥50% for fluconazole)
[17] = E. coli 0010, value in brackets
[18] = S. aureus 004, MHB (melimine/Mel4 with 0.2% BSA, 0.01% acetic acid), mean MIC
[19] = S. aureus 004, value in brackets
[20] = S. aureus 105, value in brackets
[21] = A. baumannii 005, value in brackets

C[C@@H](c1ccc(Br)cc1)N(CC(N)=O)C(=O)CN(C(=O)CN(CCCCN)C(=O)CN(C(=O)CN(C(=O)CNCCCCN)[C@@H](C)c1ccccc1)[C@@H](C)c1ccc(Br)cc1)[C@@H](C)c1ccccc1 [TM2] (H-[Nlys][Nspe][Nspe(4-Br)][Nlys][Nspe][Nspe(4-Br)]-NH2)
Geometric mean MICMBL [1]: 28.7 µg/mL
Geometric mean MICE [2]: 58.3 µg/mL
MIC of peptidomimetics [3]; 0010: 58.1 µM
MIC of peptidomimetics [3, 11]: 62.5 mg/L
MIC of peptidomimetics [4]; 04: 3.9 mg/L
MIC of peptidomimetics ([5]; JIE2709): 116.2 µM
MIC of peptidomimetics [5, 12]: 125 mg/L
MIC of peptidomimetics [6]; 105: 7.2 µM
MIC of peptidomimetics [6, 13]: 7.8 mg/L
MIC of peptidomimetics [7, 14]: 31.3 mg/L
MIC of peptidomimetics ([7]; NCTC 13): 29.0 µM
MIC of peptidomimetics [8]; 005: 7.2 µM
MIC of peptidomimetics [8, 15]: 7.8 mg/L
Geometric mean MIC, all bacteria [9]: 26.1 mg/L
Geometric mean MIC, all bacteria ([9]; value in brackets): 24.2 µM
MIC against C. auris [10, 16]: 31.25 mg/L
MIC against C. auris ([10]; CBS10913): 29 µM

C[C@@H](c1ccccc1)N(CC(N)=O)C(=O)CN(CCCCN)C(=O)CN(C(=O)CN(C(=O)CN(CCCCN)C(=O)CN(C(=O)CN(C(=O)CN(CCCCN)C(=O)CN(C(=O)CN(C(=O)CNCCCCN)[C@@H](C)c1ccccc1)[C@@H](C)c1ccccc1)[C@@H](C)c1ccccc1)[C@@H](C)c1ccccc1)[C@@H](C)c1ccccc1)[C@@H](C)c1ccccc1 [TM6] (H-[Nlys][Nspe][Nspe][Nlys][Nspe][Nspe][Nlys][Nspe][Nspe][Nlys][Nspe]-NH2)
Geometric mean MICMBL [1]: 18.6 µg/mL
Geometric mean MICE [2]: 29.1 µg/mL
MIC of peptidomimetics [3, 11]: 62.5 mg/L
MIC of peptidomimetics [3, 17]: 37.7 µM
MIC of peptidomimetics [4, 18]: 7.8 mg/L
MIC of peptidomimetics [4, 19]: 4.7 µM
MIC of peptidomimetics [5, 12]: 31.3 mg/L
MIC of peptidomimetics ([5]; K. pneumoniae JIE2709, value in brackets): 18.8 µM
MIC of peptidomimetics [6, 13]: 7.8 mg/L
MIC of peptidomimetics [6, 20]: 4.7 µM
MIC of peptidomimetics [7, 14]: 31.25 mg/L
MIC of peptidomimetics ([7]; Enteroc. faecalis NCTC 13 379, value in brackets): 18.8 µM
MIC of peptidomimetics [8, 15]: 7.8 mg/L
MIC of peptidomimetics [8, 21]: 4.7 µM
Geometric mean MIC, all bacteria [9]: 17.6 mg/L
Geometric mean MIC, all bacteria ([9]; value in brackets): 10.6 µM
MIC against C. auris [10, 16]: 31.25 mg/L
MIC against C. auris ([10]; CBS 10 913, value in brackets): 18.8 µM

C[C@@H](c1ccc(Br)cc1)N(CC(=O)N(CCCCN)CC(=O)N(CC(=O)N(CC(=O)N(CCCCN)CC(N)=O)[C@@H](C)c1ccc(Br)cc1)[C@@H](C)c1ccccc1)C(=O)CN(C(=O)CNCCCCN)[C@@H](C)c1ccccc1 [TM12] (H-[Nlys][Nspe][Nspe(4-Br)][Nlys][Nspe][Nspe(4-Br)][Nlys]-NH2)
Geometric mean MICMBL [1]: 62.5 µg/mL
Geometric mean MICE [2]: 47.4 µg/mL
MIC of peptidomimetics [3]; 0010: 103.8 µM
MIC of peptidomimetics [3, 11]: 125 mg/L
MIC of peptidomimetics [4]; 04: 3.3 µM
MIC of peptidomimetics [4, 18]: 3.9 mg/L
MIC of peptidomimetics ([5]; JIE2709): 103.8 µM
MIC of peptidomimetics [5, 12]: 125 mg/L
MIC of peptidomimetics [6]; 105: 6.5 µM
MIC of peptidomimetics [6, 13]: 7.8 mg/L
MIC of peptidomimetics [7, 14]: 7.8 mg/L
MIC of peptidomimetics ([7]; NCTC 13): 6.5 µM
MIC of peptidomimetics [8]; 005: 51.8 µM
MIC of peptidomimetics [8, 15]: 62.5 mg/L
Geometric mean MIC, all bacteria [9]: 31.2 mg/L
Geometric mean MIC, all bacteria ([9]; value in brackets): 26.0 µM
Fold increase in geometric mean MIC relative to TM4 ([9]; bacteria): 3 fold
MIC against C. auris [10, 16]: 62.5 mg/L
MIC against C. auris ([10]; CBS10913): 51.9 µM

C[C@@H](c1ccc(Br)cc1)N(CC(=O)N(CCCCN)CC(=O)N(CC(=O)N(CC(=O)N(CCCCN)CC(N)=O)[C@@H](C)c1ccc(Br)cc1)[C@@H](C)c1ccc(Br)cc1)C(=O)CN(C(=O)CNCCCCN)[C@@H](C)c1ccc(Br)cc1 [TM14] (H-[Nlys][Nspe(4-Br)][Nspe(4-Br)][Nlys][Nspe(4-Br)][Nspe(4-Br)][Nlys]-NH2)
Geometric mean MICMBL [1]: 24.1 µg/mL
Geometric mean MICE [2]: 31.3 µg/mL
MIC of peptidomimetics [3]; 0010: 23.0 µM
MIC of peptidomimetics [3, 11]: 31.3 mg/L
MIC of peptidomimetics [4]; 04: 5.7 µM
MIC of peptidomimetics [4, 18]: 7.8 mg/L
MIC of peptidomimetics ([5]; JIE2709): 45.9 µM
MIC of peptidomimetics [5, 12]: 62.5 mg/L
MIC of peptidomimetics [6]; 105: 2.9 µM
MIC of peptidomimetics [6, 13]: 3.9 mg/L
MIC of peptidomimetics [7, 14]: 7.8 mg/L
MIC of peptidomimetics ([7]; NCTC 13): 5.7 µM
MIC of peptidomimetics [8]; 005: 11.4 µM
MIC of peptidomimetics [8, 15]: 15.6 mg/L
Geometric mean MIC, all bacteria [9]: 19.9 mg/L
Geometric mean MIC, all bacteria ([9]; value in brackets): 14.6 µM
MIC against C. auris [10, 16]: 15.6 mg/L
MIC against C. auris ([10]; CBS10913): 11.5 µM

CCCCCCCCCCCCCNCC(=O)N(CCCCN)CC(=O)N(CC(=O)N(CC(=O)N(CCCCN)CC(=O)N(CCCCN)CC(N)=O)[C@@H](C)c1ccccc1)[C@@H](C)c1ccccc1 [TM15] (H-[N(tridecyl)Gly][Nlys][Nspe][Nspe][Nlys][Nlys]-NH2)
Geometric mean MICMBL [1]: 52.6 µg/mL
Geometric mean MICE [2]: 50.8 µg/mL
MIC of peptidomimetics [3]; 0010: 64.9 µM
MIC of peptidomimetics [3, 11]: 62.5 mg/L
MIC of peptidomimetics [4]; 04: 8.1 µM
MIC of peptidomimetics [4, 18]: 7.8 mg/L
MIC of peptidomimetics ([5]; JIE2709): 129.8 µM
MIC of peptidomimetics [5, 12]: 125 mg/L
MIC of peptidomimetics [6]; 105: 8.1 µM
MIC of peptidomimetics [6, 13]: 7.8 mg/L
MIC of peptidomimetics [7, 14]: 31.3 mg/L
MIC of peptidomimetics ([7]; NCTC 13): 32.4 µM
MIC of peptidomimetics [8]; 005: 64.9 µM
MIC of peptidomimetics [8, 15]: 62.5 mg/L
Geometric mean MIC, all bacteria [9]: 32.2 mg/L
Geometric mean MIC, all bacteria ([9]; value in brackets): 33.4 µM
Fold increase in geometric mean MIC relative to TM8 ([9]; bacteria): 4 fold
MIC against C. auris [10, 16]: 250 mg/L
MIC against C. auris ([10]; CBS10913): 259.6 µM

KNKRKRRRRRRGGRRRR [Mel4]
Geometric mean MICMBL [1]: 162.1 µg/mL
Geometric mean MICE [2]: 164.9 µg/mL
MIC of peptidomimetics [3, 11]: 250 mg/L
MIC of peptidomimetics [4, 18]: 62.5 mg/L
MIC of peptidomimetics [5, 12]: 62.5 mg/L
MIC of peptidomimetics [6, 13]: 62.5 mg/L
MIC of peptidomimetics [7, 14]: 500 mg/L
MIC of peptidomimetics [8, 15]: 250 mg/L
Geometric mean MIC, all bacteria [9]: 149.8 mg/L
Geometric mean MIC, all bacteria ([9]; value in brackets): 63.8 µM
MIC against C. auris [10, 16]: 125 mg/L

TLISWIKNKRKQRPRVSRRRRRRGGRRRR [Melimine]
Geometric mean MICMBL [1]: 162.1 µg/mL
Geometric mean MICE [2]: 189.5 µg/mL
MIC of peptidomimetics [3, 11]: 250 mg/L
MIC of peptidomimetics [3, 17]: 66.0 µM
MIC of peptidomimetics [4, 18]: 31.3 mg/L
MIC of peptidomimetics [4, 19]: 8.2 µM
MIC of peptidomimetics [5, 12]: 500 mg/L
MIC of peptidomimetics [6, 13]: 31.3 mg/L
MIC of peptidomimetics [6, 20]: 8.2 µM
MIC of peptidomimetics [7, 14]: 500 mg/L
MIC of peptidomimetics [8, 15]: 125 mg/L
MIC of peptidomimetics [8, 21]: 33.0 µM
Geometric mean MIC, all bacteria [9]: 132.8 mg/L
Geometric mean MIC, all bacteria ([9]; value in brackets): 35.1 µM
MIC against C. auris [10, 16]: 125 mg/L
MIC against C. auris ([10]; CBS 10 913, value in brackets): 33.0 µM
